Results from patent US11234976B2, “Methods of using pyruvate kinase activators” (Agios Pharmaceuticals, Inc., priority 2015, dated 2022).
Like-named read-outs stand apart in the source and are kept apart here.

Columns and labels:
PKD red cells = assay: Ex-vivo treatment of PKD red cells; assay type: cell-based, human; conditions: PKD red cells treated ex-vivo
[1] = target: cytochrome P450 3A4 (CYP3A4) (Homo sapiens, UniProt P08684); assay: Pre-clinical CYP3A4 induction / metabolism; assay type: in vitro ADME
[2] = MAD study pharmacokinetics in healthy subjects
[3] = MAD study safety and tolerability; conditions: doses between 360 and 700 not explored
Description: (§2) Adverse events (AEs), laboratory parameters, ECGs, and vital signs were monitored.

PK-R [4] = test system: PK-R
Description: (§1) Key exclusion criteria included glucose 6-phosphate dehydrogenase deficiency, blood donation, blood loss of greater than 500 mL, or transfusion of blood or plasma within three months of screening.

[5] = SAD study safety and tolerability; assay type: in vivo, human
Description: as §1

[6] = SAD study pharmacokinetics in healthy subjects; assay type: in vivo, human; conditions: for half-life: oral
Description: . Key exclusion criteria included glucose 6-phosphate dehydrogenase deficiency, blood donation, blood loss of greater than 500 mL, or transfusion of blood or plasma within three months of screening.

PK-R [7] = assay: MAD study pharmacodynamics (blood 2,3-DPG and ATP)
PKR = PKR (Mus musculus, UniProt P53657)
Text: Dose levels tested were 1 mpk, 10 mpk, 50 mpk, and 150 mpk. Following the last dose, mice were bled to evaluate drug exposure and pharmacodynamic markers including 2,3-DPG and ATP levels, and PKR activity.

[8] = in vivo
Description: as §2

[9] = test system: recombinantly expressed PKR mutant proteins; assay: Activation of recombinantly expressed PKR mutant proteins; assay type: biochemical
Drug exposure in mice = assay type: in vivo, C57/BL6 mice; conditions: oral gavage, 1-150 mpk, single dose and multiple dose (13 doses, BID)
Text: Dose levels tested were 1 mpk, 10 mpk, 50 mpk, and 150 mpk. Following the last dose, mice were bled to evaluate drug exposure and pharmacodynamic markers including 2,3-DPG and ATP levels, and PKR activity. […]. […]

PKR reaction = assay: PKR flux in whole blood from treated mice ([U-13C6]-glucose); assay type: in vivo, C57BL/6 mice; conditions: 100 mpk BID, 13 doses, oral gavage; kinetic flux model
Description: Whole blood was incubated with [U-^13C6]-glucose at 37° C. and the metabolite pool sizes and rate of ^13C label incorporation into glycolytic intermediates were assessed. The data were subsequently analyzed using a mathematical kinetic flux model to quantify the overall change in carbon flow through the PKR reaction.

[10] = single oral dose, 1, 10, 50, 150 mpk

Chain of PKR (P53657 whole entry): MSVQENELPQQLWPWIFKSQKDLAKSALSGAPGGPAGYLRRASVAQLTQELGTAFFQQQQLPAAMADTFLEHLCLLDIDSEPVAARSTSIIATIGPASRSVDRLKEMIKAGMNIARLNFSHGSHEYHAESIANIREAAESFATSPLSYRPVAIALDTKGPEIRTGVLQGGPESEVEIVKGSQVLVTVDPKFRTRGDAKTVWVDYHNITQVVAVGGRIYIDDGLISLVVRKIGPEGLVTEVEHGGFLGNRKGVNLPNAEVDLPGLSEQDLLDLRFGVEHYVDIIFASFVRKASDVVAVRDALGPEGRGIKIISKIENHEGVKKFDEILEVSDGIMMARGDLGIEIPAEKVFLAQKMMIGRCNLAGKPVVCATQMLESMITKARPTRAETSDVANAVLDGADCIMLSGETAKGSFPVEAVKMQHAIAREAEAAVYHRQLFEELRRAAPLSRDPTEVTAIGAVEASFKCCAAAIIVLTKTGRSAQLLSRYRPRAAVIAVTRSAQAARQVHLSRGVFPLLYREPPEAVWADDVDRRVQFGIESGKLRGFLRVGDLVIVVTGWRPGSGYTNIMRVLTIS
Chain of cytochrome P450 3A4 (CYP3A4) (P08684 whole entry): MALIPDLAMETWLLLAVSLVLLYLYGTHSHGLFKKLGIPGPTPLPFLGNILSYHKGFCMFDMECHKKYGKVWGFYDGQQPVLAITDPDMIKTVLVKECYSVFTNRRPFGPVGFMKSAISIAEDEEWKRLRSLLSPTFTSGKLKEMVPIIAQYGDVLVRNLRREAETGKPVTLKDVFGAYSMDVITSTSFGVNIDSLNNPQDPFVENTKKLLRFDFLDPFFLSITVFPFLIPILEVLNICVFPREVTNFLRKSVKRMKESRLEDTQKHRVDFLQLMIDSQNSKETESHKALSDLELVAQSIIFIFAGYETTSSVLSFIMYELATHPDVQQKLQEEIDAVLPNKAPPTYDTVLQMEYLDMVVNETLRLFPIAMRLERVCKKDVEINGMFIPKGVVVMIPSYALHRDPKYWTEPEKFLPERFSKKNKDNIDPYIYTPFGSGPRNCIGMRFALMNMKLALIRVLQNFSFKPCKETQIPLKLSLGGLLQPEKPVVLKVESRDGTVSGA

For `O=C(c1ccc(NS(=O)(=O)c2cccc3cccnc23)cc1)N1CCN(CC2CC2)CC1` [Compound 1, N-(4-(4-(cyclopropylmethyl)piperazine-1-carbonyl)phenyl)quinoline-8-sulfonamide], the “2,3-DPG levels” value (PKD red cells) was “reduced 2,3-DPG levels”, the ATP levels (PKD red cells) was “increased ATP levels” and the “PKR enzyme activity levels” value (PKD red cells) was “increased PKR enzyme activity levels”. The “role of CYP3A4 in metabolism of the compound” value [1] was “major route of the oxidative metabolism”, the CYP3A4 induction ([1]; pre-clinical data) was “moderate inducer” and the plasma exposure ([2]; 15-700 mg q12h, 120 mg q24h) was “dose dependent”. For the same molecule, the “pharmacokinetic parameter values Day 14 compared with Day 1” value ([2]; MAD cohorts 1 and 2 (120 mg BID, 360 mg BID)) was “lower on Day 14”, the highest well-tolerated dose [3] was 360 mg q12h and the “blood ATP levels” value (PK-R [4]; after a single dose, SAD study) was “minimal increases”. For the same molecule, the “time for 2,3-DPG to return to placebo levels” value (PK-R [4]; after single dose) was 72 h, the “serious AEs, discontinuations due to AEs, dose-limiting toxicities” value ([5]; SAD and 2 completed MAD cohorts) was “no serious AEs, discontinuations due to AEs, or dose-limiting toxicities” and the maximum tolerated dose ([5]; single oral dose 30-2500 mg) was “not reached”. For the same molecule, the half-life ([6]; both sexes, human, plasma, concentrations measured for 72 hours, read-out: mean apparent terminal half-life (t1/2)) was 17.5 to 20.5 h, the half-life ([6]; both sexes, human, plasma, concentrations measured for 120 hours, read-out: mean apparent terminal half-life (t1/2)) was 50 to 80 h and the half-life ([6]; both sexes, human, plasma, first 12 hours following dosing, read-out: apparent half-life of rapid distribution or elimination phase) was 2 to 4 h. The Tmax ([6]; both sexes, human, plasma, single oral dose, SAD cohorts, read-out: median Tmax) was 0.75 to 4 h, the “effect of food on exposure” value ([6]; fed vs fasted, preliminary results) was “minimal effect” and the “exposure (mean plasma Cmax, AUC0-12 hr and AUC0-72 hr)” value ([6]; single doses, SAD cohorts 1-6) was “increased in a dose-proportional manner”. For the same molecule, the “effect on ATP levels after first dose” value (PK-R [7]; 12 hours following the first dose) was “minimal”, the “ATP levels in the blood” value (PK-R [7]; Days 8-14, MAD cohorts 1 and 2) was “substantial increases” and the “2,3-DPG levels” value (PK-R [7]; after final dose, MAD cohorts 1 and 2) was “decreases in 2,3-DPG levels”. For the same molecule, the “time ATP levels remained elevated” value (PK-R [7]; after the last dose, MAD cohorts 1 and 2) was ≥ 72 h, the “dose at which decrease in 2,3-DPG and increase in ATP plateau” value (PK-R [7]; in vivo) was 360 mg q12h and the “time for 2,3-DPG decrease to reach full extent” value (PK-R [7]; of dosing) was ≤ 7 days. The “time for ATP increase to reach full extent” value (PK-R [7]; of dosing) was ≤ 10 days, the “ATP levels in whole blood” value (PKR; multiple doses (13 doses, BID), 1, 10, 50, 150 mpk) was “robustly increased in a dose-dependent manner” and the “2,3-DPG levels in whole blood” value (PKR; [10]) was “reduction in 2,3-DPG levels”. The “ATP levels in whole blood” value (PKR; [10]) was “no significant changes”, the “dose at which gastrointestinal AEs occurred” value ([8]; both, human, 14 days) was 700 mg q12h and the “severity of treatment-related AEs” value ([8]; both, human, 14 days) was “mild or moderate (only 1 grade 3 event)”. For the same molecule, the “subjects with related headache” value ([8]; both, human, 14 days) was 14%, the “subjects with related nausea” value ([8]; both, human, 14 days) was 14% and the “subjects with treatment related ≥1 AEs” value ([8]; both, human, 14 days) was 31%. For the same molecule, the “subjects with ≥1 AE” value ([8]; both, human, 14 days) was 44%, the number of discontinuations [8] was “four” and the “activity of mutated PK-R enzymes” value ([9]; pre-clinical studies) was “increases the activity”. For the same molecule, the “protein stability of PKR mutant proteins” value ([9]; recombinantly expressed PKR mutants associated with PKD) was “enhances the protein stability”, the drug exposure (Drug exposure in mice) was “dose-proportional increase in exposure” and the “glycolytic flux through the PKR reaction” value (PKR reaction) was “significantly increased”.
